Test results as given in patent publication US20160137639A1, “TRIAZOLE-ISOXAZOLE COMPOUND AND MEDICAL USE THEREOF” (JAPAN TOBACCO INC., priority 2012, published 2016).
Like-named read-outs stand apart in the source and are kept apart here.

What was measured:
mouse RORγ = biological target: T1, mouse RORγ (Mus musculus, UniProt P51450); assay: Luciferase reporter gene assay of inhibitory effect against RORγ transcriptional activity (GAL4-mRORγ plasmid in CHO cells); type: cell-based
T1 construct: mouse, NM_011281.2 and from Ile251 to Lys516; expressed in transfected cells; host or cells: CHO cells (transient co-transfection with pG5-Luc reporter)
T1 sequence (P51450 251-516): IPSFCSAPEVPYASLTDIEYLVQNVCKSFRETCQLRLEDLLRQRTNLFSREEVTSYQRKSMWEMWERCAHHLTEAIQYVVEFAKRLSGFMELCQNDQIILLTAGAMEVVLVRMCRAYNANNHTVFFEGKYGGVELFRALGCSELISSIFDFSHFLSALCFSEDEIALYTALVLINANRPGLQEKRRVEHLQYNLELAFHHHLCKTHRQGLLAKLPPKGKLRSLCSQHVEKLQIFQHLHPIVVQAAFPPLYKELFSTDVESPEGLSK
How it was run: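 CHO cells transiently co-transfected with GAL4-mouse RORγ LBD (Ile251–Lys516) and GAL4-dependent luciferase reporter; eight compound concentrations, 0.1% DMSO, 2 days at 37 °C. Luminescence as %-of-vehicle control; EC50 by curve fit, cytotoxic concentrations excluded.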

human RORγ = biological target: T2, human RORγ (Homo sapiens, UniProt P51449); assay: Luciferase reporter gene assay of inhibitory effect against RORγ transcriptional activity (GAL4-hRORγ plasmid in CHO cells); type: cell-based
T2 construct: human, NM_005060.3 and from Ser253 to Lys518; expressed in transfected cells; host or cells: CHO cells (transient co-transfection with pG5-Luc reporter)
T2 sequence (P51449 253-518): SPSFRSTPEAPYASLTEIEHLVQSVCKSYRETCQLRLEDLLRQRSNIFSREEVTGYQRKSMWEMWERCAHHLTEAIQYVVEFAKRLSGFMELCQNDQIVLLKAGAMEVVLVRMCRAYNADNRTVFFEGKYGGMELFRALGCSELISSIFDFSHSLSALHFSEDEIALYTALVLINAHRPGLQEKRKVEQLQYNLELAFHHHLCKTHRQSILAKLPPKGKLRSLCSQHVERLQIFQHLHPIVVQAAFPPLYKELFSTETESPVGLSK

Structure (SMILES): Cc1cc(C(N)=O)ccc1NC(=O)CCc1nnc(CCC(C)C)n1C1CC1 [Example F-157]
- EC50 (mouse RORγ; read-out: LUC EC50 (μM) mRORg): > 3 µM
- EC50 (human RORγ; read-out: LUC EC50 (μM) hRORg): > 3 µM

Structure (SMILES): Cc1ccc(NC(=O)CC(Cc2nc(=O)o[nH]2)c2nnc([C@H]3C[C@@H](CC(C)C)C3)n2C2CC2)c(C)c1 (mixture of isomers) [Example F-472]
- EC50 (mouse RORγ; read-out: LUC EC50 (μM) mRORg): < 3 µM
- EC50 (human RORγ; read-out: LUC EC50 (μM) hRORg): < 3 µM

Structure (SMILES): Cc1ccc(NC(=O)C[C@H](CCc2noc(=O)[nH]2)c2noc([C@H]3C[C@@H](CC(C)C)C3)c2C2CC2)c(C)c1 [Example F-643]
- EC50 (mouse RORγ; read-out: LUC EC50 mRORg): < 3 µM
- EC50 (human RORγ; read-out: LUC EC50 hRORg): < 3 µM

Structure (SMILES): Cc1ccc(NC(=O)[C@H]2CN(C(=O)OC(C)(C)C)C[C@@H]2c2nnc([C@H]3C[C@@H](CC(C)(C)C)C3)n2C2CC2)c(C)c1 [Example F-540]
- EC50 (mouse RORγ; read-out: LUC EC50 mRORg): < 3 µM
- EC50 (human RORγ; read-out: LUC EC50 hRORg): < 3 µM

Structure (SMILES): Cc1ccc(NC(=O)C[C@H](CCC(=O)O)c2noc(-c3cc(C(F)(F)CC(C)C)on3)c2C2CC2)c(Cl)c1 [Example E-33]
- EC50 (mouse RORγ; read-out: LUC EC50 (μM) mRORg): < 3 µM
- EC50 (human RORγ; read-out: LUC EC50 (μM) hRORg): < 3 µM

Structure (SMILES): Cc1ccc(NC(=O)CCc2nnc(-c3cc(CC(C)C)on3)n2C2CC2)c(C)c1 [Example F-405]
- EC50 (mouse RORγ; read-out: LUC EC50 (μM) mRORg): < 3 µM
- EC50 (human RORγ; read-out: LUC EC50 (μM) hRORg): < 3 µM

Structure (SMILES): O=C(O)CC[C@@H](CC(=O)Nc1ccc(F)cc1Cl)c1noc(-c2cc(C3CCCC3)on2)c1C1CC1 [Example E-60]
- EC50 (mouse RORγ; read-out: LUC EC50 (μM) mRORg): < 3 µM
- EC50 (human RORγ; read-out: LUC EC50 (μM) hRORg): < 3 µM

Structure (SMILES): Cc1cc(Cl)ccc1NC(=O)CCc1nnc(CCC(C)C)n1C1CC1 [Example F-138]
- EC50 (mouse RORγ; read-out: LUC EC50 (μM) mRORg): < 3 µM
- EC50 (human RORγ; read-out: LUC EC50 (μM) hRORg): > 3 µM

Structure (SMILES): Cc1ccc(NC(=O)C(CC(=O)O)Cc2noc([C@H]3C[C@@H](CC(C)C)C3)c2C2CC2)c(C)c1 (stereo partly shown) [Example F-666]
- EC50 (mouse RORγ; read-out: LUC EC50 mRORg): < 3 µM
- EC50 (human RORγ; read-out: LUC EC50 hRORg): > 3 µM

Structure (SMILES): C=CCC(CC(=O)Nc1ccc(C)cc1C)c1nnc(CCCC(C)(C)C)n1C1CC1 (racemic) [Example F-306]
- EC50 (mouse RORγ; read-out: LUC EC50 (μM) mRORg): < 3 µM
- EC50 (human RORγ; read-out: LUC EC50 (μM) hRORg): < 3 µM

Structure (SMILES): CC(=O)N1C[C@H](C(=O)Nc2ccc(C)cc2C)[C@@H](c2nnc([C@H]3CC[C@H](C(C)C)CC3)n2C2CC2)C1 (racemic) [Example F-300]
- EC50 (mouse RORγ; read-out: LUC EC50 (μM) mRORg): < 3 µM
- EC50 (human RORγ; read-out: LUC EC50 (μM) hRORg): < 3 µM

Structure (SMILES): Cc1ccc(NC(=O)[C@H]2CCN(C)C[C@@H]2c2nnc(CCCC(C)(C)C)n2C2CC2)c(C)c1 (racemic) [Example F-395]
- EC50 (mouse RORγ; read-out: LUC EC50 (μM) mRORg): < 3 µM
- EC50 (human RORγ; read-out: LUC EC50 (μM) hRORg): < 3 µM

Structure (SMILES): Cc1ccc(NC(=O)C[C@H](CCC(=O)O)c2noc(-c3cc(CC(C)C)on3)c2C2CC2)c(F)c1 [Example E-03]
- EC50 (mouse RORγ; read-out: LUC EC50 (μM) mRORg): < 3 µM
- EC50 (human RORγ; read-out: LUC EC50 (μM) hRORg): < 3 µM

Structure (SMILES): Cc1ccc(NC(=O)CCc2noc(C3(CC(=O)O)CC(CC(C)(C)C)C3)c2C2CC2)c(Cl)c1 (mixture of isomers) [Example F-743]
- EC50 (mouse RORγ; read-out: LUC EC50 mRORg): > 3 µM
- EC50 (human RORγ; read-out: LUC EC50 hRORg): > 3 µM

Structure (SMILES): CCn1c(CCC2CCCCC2)nnc1[C@H]1C[C@@H]1C(=O)Nc1cccc2ccccc12 (racemic) [Example F-36]
- EC50 (mouse RORγ; read-out: LUC EC50 (μM) mRORg): > 3 µM
- EC50 (human RORγ; read-out: LUC EC50 (μM) hRORg): > 3 µM

Structure (SMILES): Cc1ccc(NC(=O)[C@H]2CC(N(C)C(C)C)C[C@@H]2c2nnc([C@H]3C[C@@H](CC(C)C)C3)n2C2CC2)c(C)c1 (single isomer, unassigned) [Example F-539]
- EC50 (mouse RORγ; read-out: LUC EC50 mRORg): < 3 µM
- EC50 (human RORγ; read-out: LUC EC50 hRORg): > 3 µM

Structure (SMILES): Cc1ccc(NC(=O)[C@H]2CN(C)C(=O)[C@@H]2c2nnc(CCCC(C)(C)C)n2C2CC2)c(C)c1 [Example F-303]
- EC50 (mouse RORγ; read-out: LUC EC50 (μM) mRORg): < 3 µM
- EC50 (human RORγ; read-out: LUC EC50 (μM) hRORg): < 3 µM

Structure (SMILES): Cc1ccc(NC(=O)CCc2nnc(CCCC(C)(C)C)n2C2CC2)c(C)c1 [Example F-305]
- EC50 (mouse RORγ; read-out: LUC EC50 (μM) mRORg): < 3 µM
- EC50 (human RORγ; read-out: LUC EC50 (μM) hRORg): < 3 µM

Structure (SMILES): Cc1c(Cl)cccc1NC(=O)CCc1nnc(CCCC(C)(C)C)n1C1CC1 [Example F-181]
- EC50 (mouse RORγ; read-out: LUC EC50 (μM) mRORg): < 3 µM
- EC50 (human RORγ; read-out: LUC EC50 (μM) hRORg): < 3 µM

Structure (SMILES): Cc1c(Cl)cccc1NC(=O)CCc1nnc(CCC(=O)O)n1C1CC1 [Example F-185]
- EC50 (mouse RORγ; read-out: LUC EC50 (μM) mRORg): > 3 µM
- EC50 (human RORγ; read-out: LUC EC50 (μM) hRORg): > 3 µM

Structure (SMILES): Cc1cc(Cl)c(NC(=O)C[C@H](CCC(=O)O)c2noc(-c3cc(CCC(C)(C)C)on3)c2C2CC2)cc1F [Example E-45]
- EC50 (mouse RORγ; read-out: LUC EC50 (μM) mRORg): < 3 µM
- EC50 (human RORγ; read-out: LUC EC50 (μM) hRORg): < 3 µM

Structure (SMILES): Cc1ccc(NC(=O)[C@H]2CN(C)C[C@@H]2c2nnc(-c3cc(CC(C)C)on3)n2C2CC2)c(C)c1 [Example F-618]
- EC50 (mouse RORγ; read-out: LUC EC50 mRORg): < 3 µM
- EC50 (human RORγ; read-out: LUC EC50 hRORg): < 3 µM

Structure (SMILES): Cc1ccc(NC(=O)[C@H]2CN(CC(=O)N(C)C)C[C@@H]2c2nnc([C@H]3C[C@@H](CC(C)C)C3)n2C2CC2)c(C)c1 [Example F-656]
- EC50 (mouse RORγ; read-out: LUC EC50 mRORg): < 3 µM
- EC50 (human RORγ; read-out: LUC EC50 hRORg): < 3 µM
